Assay results as given in US9469615B2, “Quinoxalines and AZA-quinoxalines as CRTH2 receptor modulators” (Merck Sharp & Dohme Corp., priority 2010, dated 2016).

target: T1, hCRTH2 (Homo sapiens, UniProt Q9Y5Y4); assay: Radioligand binding assay ([3H]PGD2 competition, HEK-hCRTH2 membranes); conditions: [3H]PGD2 competition, Table B
T1 construct: expressed in transfected cells; host or cells: HEK (human embryonic kidney) cells expressing hCRTH2; membrane preparation
T1 sequence (Q9Y5Y4 1-395): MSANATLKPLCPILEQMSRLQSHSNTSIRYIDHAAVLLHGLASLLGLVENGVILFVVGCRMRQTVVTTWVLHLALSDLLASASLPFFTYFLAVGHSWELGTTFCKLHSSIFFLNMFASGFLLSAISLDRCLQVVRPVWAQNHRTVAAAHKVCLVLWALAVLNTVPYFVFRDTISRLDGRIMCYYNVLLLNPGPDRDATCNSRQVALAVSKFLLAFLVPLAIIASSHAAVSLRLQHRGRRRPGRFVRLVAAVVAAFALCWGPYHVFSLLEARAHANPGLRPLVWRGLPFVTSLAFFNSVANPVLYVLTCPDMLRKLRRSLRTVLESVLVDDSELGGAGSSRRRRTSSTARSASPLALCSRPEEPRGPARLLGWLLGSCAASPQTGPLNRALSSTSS
In short: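 Competition against 3.0 nM [3H]PGD2 was run for 60 min at room temperature in pH 7.4 Tris-HCl buffer with EDTA, 2 mM MnCl2 and 1% DMSO, using 8-20 μg HEK-hCRTH2 membrane protein. 10 μM PGD2 set non-specific binding; filter-bound counts were read by scintillation.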

Structure (SMILES) | Ki
C[C@@H](NC(=O)c1ccc2nc(-c3ccc(F)c(F)c3)c(CCCCC(=O)O)nc2c1)c1ccc(F)cc1 [compound 411] | 20.1 to 200 nM
C[C@@H](NC(=O)c1ccc2nc(-c3ccc(Cl)cc3Cl)c(CCCCC(=O)O)nc2c1)c1ccc(F)cc1 [compound 416, (R)-5-(3-(2,4-dichlorophenyl)-7-((1-(4-fluorophenyl)ethyl)carbamoyl)quinoxalin-2-yl)pentanoic acid] | 2.1 to 20 nM
C[C@@H](NC(=O)c1ccc2nc(-c3ccc(C(F)(F)F)cc3Cl)c(CCCCC(=O)O)nc2c1)c1ccc(F)cc1 [compound 417, (R)-5-(3-(2-chloro-4-(trifluoromethyl)phenyl)-7-((1-(4-fluorophenyl)ethyl)carbamoyl)quinoxalin-2-yl) pentanoic acid] | 2.1 to 20 nM
C[C@@H](NC(=O)c1ccc2nc(-c3ccc(Cl)cc3)c(CCC(=O)O)nc2c1)c1ccc(F)cc1 [compound 418, (R)-3-(3-(4-chlorophenyl)-7-((1-(4-fluorophenyl)ethyl)carbamoyl)quinoxalin-2-yl) propanoic acid] | 20.1 to 200 nM
C[C@@H](NC(=O)c1ccc2nc(-c3ccccc3)c(CC3CC(C(=O)O)C3)nc2c1)c1ccc(F)cc1 (stereo partly drawn) [compound 422, (R)-3-((7-((1-(4-fluorophenyl)ethyl)carbamoyl)-3-phenylquinoxalin-2-yl)methyl)cyclobutanecarboxyl acid] | 2.1 to 20 nM
CC(CCCc1nc2cc(C(=O)N3CCN(c4ccccc4)CC3)ccc2nc1-c1ccc(C(F)(F)F)cc1)C(=O)O (stereo not shown) [compound 423, 2-methyl-5-(7-(4-phenylpperazine-1-carbonyl)-3-(4-(trifluoromethyl)phenyl)quinoxalin-2-yl) pentanoic acid] | 2.1 to 20 nM
CC(CCc1nc2cc(C(=O)N[C@H](C)c3ccc(F)cc3)ccc2nc1-c1ccc(Cl)cc1)CC(=O)O (stereo partly drawn) [compound 429, 5-(3-(4-chlorophenyl)-7-(((R)-1-(4-fluorophenyl)ethyl)carbamoyl)quinoxalin-2-yl)-3-methylpentanoic acid] | 0.1 to 2 nM
CC(CCc1nc2cc(C(=O)N[C@@H]3CCCc4ccccc43)ccc2nc1-c1ccc(F)cc1)CC(=O)O (stereo partly drawn) [compound 431, 5-(3-(4-fluorophenyl)-7-(((R)-1,2,3,4-tetrahydronaphthalen-1-yl)carbamoyl)quinoxalin-2-yl)-3-methylpentanoic acid] | 2.1 to 20 nM
CC(CCc1nc2cc(C(=O)N[C@H](C)c3ccc(F)cc3)ccc2nc1-c1ccc(F)cc1)CC(=O)O (stereo partly drawn) [compound 432, 5-(3-(4-fluorophenyl)-7-(((R)-1-(4-fluorophenyl)ethyl)carbamoyl)quinoxalin-2-yl)-3-methylpentanoic acid] | 0.1 to 2 nM
CC(CCc1nc2cc(C(=O)N[C@H]3CCCc4ccccc43)ccc2nc1-c1ccc(F)cc1)CC(=O)O (stereo partly drawn) [compound 433, 5-(3-(4-fluorophenyl)-7-(((S)-1,2,3,4-tetrahydronaphthalen-1-yl)carbamoyl)quinoxalin-2-yl)-3-methylpentanoic acid] | 2.1 to 20 nM
C[C@@H](NC(=O)c1ccc2nc(-c3ccc(Cl)cc3)c(CCCCC(=O)O)nc2c1)c1ccc(F)cn1 [compound 434, (R)-5-(3-(4-chlorophenyl)-7-((1-(5-fluoropyridin-2-yl)ethyl)carbamoyl)quinoxalin-2-yl)pentanoic acid] | 0.1 to 2 nM

Now from value to compound:

Ki | Structure (SMILES)
20.1 to 200 nM | CC(CCCc1nc2cc(C(=O)N[C@H](C)c3ccc(F)cc3)ccc2nc1-c1ccc(Cl)cc1)C(=O)O (stereo partly drawn) [compound 409, 5-(3-(4-chlorophenyl)-7-(((R)-1-(4-fluorophenyl)ethyl)carbamoyl)quinoxalin-2-yl)-2-methylpentanoic acid]
20.1 to 200 nM | C[C@@H](NC(=O)c1ccc2nc(-c3cccc(C#N)c3)c(CCCCC(=O)O)nc2c1)c1ccc(F)cc1 [compound 410, (R)-5-(3-(3-cyanophenyl)-7-((1-(4-fluorophenyl)ethyl)carbamoyl)quinoxalin-2-yl)pentanoic acid]
0.1 to 2 nM | C[C@@H](NC(=O)c1ccc2nc(-c3ccc(Cl)cc3)c(CCCCC(=O)O)nc2c1)c1cc(F)cc(F)c1 [compound 412, (R)-5-(3-(4-chlorophenyl)-7-((1-(3,5-difluorophenyl)ethyl)carbamoyl)quinoxalin-2-yl) pentanoic acid]
0.1 to 2 nM | C[C@H](NC(=O)c1ccc2nc(-c3ccc(Cl)cc3)c(CCCCC(=O)O)nc2c1)c1cc(F)cc(F)c1 [compound 413, (S)-5-(3-(4-chlorophenyl)-7-((1-(3,5-difluorophenyl)ethyl)carbamoyl)quinoxalin-2-yl) pentanoic acid]
0.1 to 2 nM | O=C(O)CCCCc1nc2cc(C(=O)N3CCC(c4ccc(F)cc4)CC3)ccc2nc1-c1ccc(Cl)cc1 [compound 414, 5-(3-(4-chlorophenyl)-7-(4-(4-fluorophenyl)piperidine-1-carbonyl)quinoxalin-2-yl)pentanoic acid]
0.1 to 2 nM | O=C(O)CCCCc1nc2cc(C(=O)N3CCC(c4ccc(Cl)cc4)CC3)ccc2nc1-c1ccc(Cl)cc1 [compound 415, 5-(3-(4-chlorophenyl)-7-(4-(4-chlorophenyl)piperidine-1-carbonyl)quinoxalin-2-yl)pentanoic acid]
0.1 to 2 nM | O=C(O)CCCCc1nc2cc(C(=O)N3CC(c4cccc(F)c4)C3)ccc2nc1-c1ccc(Cl)cc1 [compound 419, 5-(3-(4-chlorophenyl)-7-(3-(3-fluorophenyl)azetidine-1-carbonyl)quinoxalin-2-yl)pentanoic acid]
0.1 to 2 nM | O=C(O)CCCCc1nc2cc(C(=O)N3CC(c4ccc(F)c(F)c4)C3)ccc2nc1-c1ccc(Cl)cc1 [compound 420, 5-(3-(4-chlorophenyl)-7-(3-(3,4-difluorophenyl)azetidine-1-carbonyl)quinoxalin-2-yl)pentanoic acid]
0.1 to 2 nM | N#Cc1ccc(C2CN(C(=O)c3ccc4nc(-c5ccc(Cl)cc5)c(CCCCC(=O)O)nc4c3)C2)cc1 [compound 421, 5-(3-(4-chlorophenyl)-7-(3-(4-cyanophenyl)azetidine-l-carbonyl)quinoxalin-2-yl)pentanoic acid]
0.1 to 2 nM | O=C(O)CCCCc1nc2cc(C(=O)N3CC(c4cccc(Cl)c4)C3)ccc2nc1-c1ccc(Cl)cc1 [compound 425, 5-(3-(4-chlorophenyl)-7-(3-(3-chlorophenyl)azetidine-1-carbonyl)quinoxalin-2-yl)pentanoic acid]
0.1 to 2 nM | O=C(O)CCCCc1nc2cc(C(=O)N3CC(c4ccc(Cl)cc4)C3)ccc2nc1-c1ccc(Cl)cc1 [compound 426, 5-(3-(4-chlorophenyl)-7-(3-(4-chlorophenyl)azetidine-1-carbonyl)quinoxalin-2-yl)pentanoic acid]
2.1 to 20 nM | CC(CCCc1nc2cc(C(=O)N[C@H](C)c3ccc(Cl)cc3)ccc2nc1-c1ccc(F)cc1)C(=O)O (stereo partly drawn) [compound 427, 5-(7-(((R)-1-(4-chlorophenyl)ethyl)carbamoyl)-3-(4-fluorophenyl)quinoxalin-2-yl)-2-methylpentanoic acid]
20.1 to 200 nM | CC(CCCc1nc2cc(C(=O)N[C@@H](C)c3ccc(Cl)cc3)ccc2nc1-c1ccc(F)cc1)C(=O)O (stereo partly drawn) [compound 428, 5-(7-(((S)-1-(4-chlorophenyl)ethyl)carbamoyl)-3-3-(4-fluorophenyl)quinoxalin-2-yl)-2-methylpentanoic acid]
2.1 to 20 nM | CC(CCc1nc2cc(C(=O)N[C@@H](C)c3ccc(F)cc3)ccc2nc1-c1ccc(F)cc1)CC(=O)O (stereo partly drawn) [compound 430, 5-(3-(4-fluorophenyl)-7-(((S)-1-(4-fluorophenyl)ethyl)carbamoyl)quinoxalin-2-yl)-3-methylpentanoic acid]
